Laboratory results from PubChem BioAssay AID1919016 (Molecular Pharmacology Branch, DTP, NCI, 2023).

Test system: NCI-H196 complex spheroid growth, percent test/control
Assay: Anticancer human tumor NCI-H196 cell line growth inhibition [AhR];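 also: seven days of drug exposure starting three days after plating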;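 as to viability, T/C: 100% = DMSO vehicle control wells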
Conditions: for IC50: curve of first compound; for viability, T/C: stronger effect = lower value
Summary of the method: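 Spheroids combined tumor cells with HUVEC endothelial cells and human MSCs as stroma. AhR antagonists were paired with standard or investigational drugs, each dosed in half-log steps down from near clinical Cmax, or from 10 microM where Cmax was unknown.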

[1] = second compound 0.1 µM, first compound 0.0316 µM
[2] = second compound 0.1 µM, first compound 0.1 µM
[3] = second compound 0.1 µM, first compound 0.316 µM
[4] = second compound 0.1 µM, first compound 1 µM
[5] = second compound 0.1 µM, first compound 3.16 µM
[6] = second compound 0.1 µM, first compound 10 µM
[7] = second compound 0.316 µM, first compound 0.0316 µM
[8] = second compound 0.316 µM, first compound 0.1 µM
[9] = second compound 0.316 µM, first compound 0.316 µM
[10] = second compound 0.316 µM, first compound 1 µM
[11] = second compound 0.316 µM, first compound 3.16 µM
[12] = second compound 0.316 µM, first compound 10 µM
[13] = second compound 1 µM, first compound 0.0316 µM
[14] = second compound 1 µM, first compound 0.1 µM
[15] = second compound 1 µM, first compound 0.316 µM
[16] = second compound 1 µM, first compound 1 µM
[17] = second compound 1 µM, first compound 3.16 µM
[18] = second compound 1 µM, first compound 10 µM
[19] = second compound 3.16 µM, first compound 0.0316 µM
[20] = second compound 3.16 µM, first compound 0.1 µM
[21] = second compound 3.16 µM, first compound 0.316 µM
[22] = second compound 3.16 µM, first compound 1 µM
[23] = second compound 3.16 µM, first compound 3.16 µM
[24] = second compound 3.16 µM, first compound 10 µM
[25] = second compound 10 µM, first compound 0.0316 µM
[26] = second compound 10 µM, first compound 0.1 µM
[27] = second compound 10 µM, first compound 0.316 µM
[28] = second compound 10 µM, first compound 1 µM
[29] = second compound 10 µM, first compound 3.16 µM
[30] = second compound 10 µM, first compound 10 µM

O=C(C=Cc1cccc(S(=O)(=O)Nc2ccccc2)c1)NO + CC(CO)NC(=O)c1cc(-c2ccc(Cl)cc2)nn(-c2cnn(C)c2)c1=O
IC50 (second compound 0.1 µM): 1630 nM | IC50 (second compound 0.316 µM): 1770 nM | IC50 (second compound 1 µM): 2020 nM | IC50 (second compound 3.16 µM): 1750 nM | IC50 (second compound 10 µM): 1810 nM | viability, T/C [1]: 107% | viability, T/C [2]: 92.2% | viability, T/C [3]: 91.3% | viability, T/C [4]: 72.2% | viability, T/C [5]: 21.6% | viability, T/C [6]: 1.02% | viability, T/C [7]: 109% | viability, T/C [8]: 98.1% | viability, T/C [9]: 98.9% | viability, T/C [10]: 71.2% | viability, T/C [11]: 28% | viability, T/C [12]: 0.59% | viability, T/C [13]: 101% | viability, T/C [14]: 99.5% | viability, T/C [15]: 102% | viability, T/C [16]: 83.7% | viability, T/C [17]: 28.5% | viability, T/C [18]: 0.5% | viability, T/C [19]: 108% | viability, T/C [20]: 109% | viability, T/C [21]: 102% | viability, T/C [22]: 74.1% | viability, T/C [23]: 24.3% | viability, T/C [24]: 0.54% | viability, T/C [25]: 119% | viability, T/C [26]: 106% | viability, T/C [27]: 99.9% | viability, T/C [28]: 75.1% | viability, T/C [29]: 26.9% | viability, T/C [30]: 0.56%

CCc1c2c(nc3ccc(O)cc13)-c1cc3c(c(=O)n1C2)COC(=O)[C@]3(O)CC + Cc1ccccc1N=Nc1ccc(NC(=O)c2ccnn2C)c(C)c1
IC50 (second compound 0.1 µM): > 300 nM | IC50 (second compound 0.316 µM): > 300 nM | IC50 (second compound 1 µM): > 300 nM | IC50 (second compound 3.16 µM): > 300 nM | IC50 (second compound 10 µM): > 300 nM | viability, T/C (second compound 0.1 µM, first compound 0.000949 µM): 97% | viability, T/C (second compound 0.1 µM, first compound 0.003 µM): 101% | viability, T/C (second compound 0.1 µM, first compound 0.00949 µM): 103% | viability, T/C (second compound 0.1 µM, first compound 0.03 µM): 95.3% | viability, T/C (second compound 0.1 µM, first compound 0.0949 µM): 93.3% | viability, T/C (second compound 0.1 µM, first compound 0.3 µM): 81.2% | viability, T/C (second compound 0.316 µM, first compound 0.000949 µM): 96.3% | viability, T/C (second compound 0.316 µM, first compound 0.003 µM): 103% | viability, T/C (second compound 0.316 µM, first compound 0.00949 µM): 106% | viability, T/C (second compound 0.316 µM, first compound 0.03 µM): 89.7% | viability, T/C (second compound 0.316 µM, first compound 0.0949 µM): 89.2% | viability, T/C (second compound 0.316 µM, first compound 0.3 µM): 85.2% | viability, T/C (second compound 1 µM, first compound 0.000949 µM): 89.8% | viability, T/C (second compound 1 µM, first compound 0.003 µM): 106% | viability, T/C (second compound 1 µM, first compound 0.00949 µM): 93.8% | viability, T/C (second compound 1 µM, first compound 0.03 µM): 100% | viability, T/C (second compound 1 µM, first compound 0.0949 µM): 99.2% | viability, T/C (second compound 1 µM, first compound 0.3 µM): 70.7% | viability, T/C (second compound 3.16 µM, first compound 0.000949 µM): 89.4% | viability, T/C (second compound 3.16 µM, first compound 0.003 µM): 91.3% | viability, T/C (second compound 3.16 µM, first compound 0.00949 µM): 103% | viability, T/C (second compound 3.16 µM, first compound 0.03 µM): 88.9% | viability, T/C (second compound 3.16 µM, first compound 0.0949 µM): 82.7% | viability, T/C (second compound 3.16 µM, first compound 0.3 µM): 74.3% | viability, T/C (second compound 10 µM, first compound 0.000949 µM): 89% | viability, T/C (second compound 10 µM, first compound 0.003 µM): 108% | viability, T/C (second compound 10 µM, first compound 0.00949 µM): 93.3% | viability, T/C (second compound 10 µM, first compound 0.03 µM): 94.9% | viability, T/C (second compound 10 µM, first compound 0.0949 µM): 96% | viability, T/C (second compound 10 µM, first compound 0.3 µM): 76.1%

Nc1ccccc1NC(=O)c1ccc(CNC(=O)OCc2cccnc2)cc1 + Cc1cncc(-c2nc(NCCc3c[nH]c4ccccc34)c3ncn(C(C)C)c3n2)c1
IC50 (second compound 0.1 µM): 478 nM | IC50 (second compound 0.316 µM): 614 nM | IC50 (second compound 1 µM): 540 nM | IC50 (second compound 3.16 µM): 651 nM | IC50 (second compound 10 µM): 591 nM | viability, T/C [1]: 87.4% | viability, T/C [2]: 74.2% | viability, T/C [3]: 57.6% | viability, T/C [4]: 38.3% | viability, T/C [5]: 12.1% | viability, T/C [6]: 0.58% | viability, T/C [7]: 75.1% | viability, T/C [8]: 78.7% | viability, T/C [9]: 60% | viability, T/C [10]: 42% | viability, T/C [11]: 13% | viability, T/C [12]: 0.65% | viability, T/C [13]: 96.3% | viability, T/C [14]: 81.4% | viability, T/C [15]: 67.4% | viability, T/C [16]: 31.9% | viability, T/C [17]: 11.4% | viability, T/C [18]: 0.72% | viability, T/C [19]: 87.1% | viability, T/C [20]: 85.2% | viability, T/C [21]: 69.8% | viability, T/C [22]: 38.3% | viability, T/C [23]: 9.78% | viability, T/C [24]: 1.22% | viability, T/C [25]: 82.2% | viability, T/C [26]: 85.5% | viability, T/C [27]: 63.5% | viability, T/C [28]: 38.1% | viability, T/C [29]: 8.35% | viability, T/C [30]: 1.86%

CC(C)c1c(-c2ccccc2)nc2c(C#N)c[nH]n2c1=O + CC(CO)NC(=O)c1cc(-c2ccc(Cl)cc2)nn(-c2cnn(C)c2)c1=O
IC50 (second compound 0.1 µM): > 10000 nM | IC50 (second compound 0.316 µM): > 10000 nM | IC50 (second compound 1 µM): > 10000 nM | IC50 (second compound 3.16 µM): > 10000 nM | IC50 (second compound 10 µM): > 10000 nM | viability, T/C [1]: 118% | viability, T/C [2]: 107% | viability, T/C [3]: 111% | viability, T/C [4]: 105% | viability, T/C [5]: 104% | viability, T/C [6]: 102% | viability, T/C [7]: 116% | viability, T/C [8]: 128% | viability, T/C [9]: 109% | viability, T/C [10]: 112% | viability, T/C [11]: 108% | viability, T/C [12]: 111% | viability, T/C [13]: 111% | viability, T/C [14]: 114% | viability, T/C [15]: 117% | viability, T/C [16]: 121% | viability, T/C [17]: 118% | viability, T/C [18]: 104% | viability, T/C [19]: 109% | viability, T/C [20]: 111% | viability, T/C [21]: 118% | viability, T/C [22]: 114% | viability, T/C [23]: 117% | viability, T/C [24]: 110% | viability, T/C [25]: 116% | viability, T/C [26]: 127% | viability, T/C [27]: 114% | viability, T/C [28]: 119% | viability, T/C [29]: 111% | viability, T/C [30]: 108%

CC(C)c1c(-c2ccccc2)nc2c(C#N)c[nH]n2c1=O + Cc1ccccc1N=Nc1ccc(NC(=O)c2ccnn2C)c(C)c1
IC50 (second compound 0.1 µM): > 10000 nM | IC50 (second compound 0.316 µM): > 10000 nM | IC50 (second compound 1 µM): > 10000 nM | IC50 (second compound 3.16 µM): > 10000 nM | IC50 (second compound 10 µM): > 10000 nM | viability, T/C [1]: 103% | viability, T/C [2]: 104% | viability, T/C [3]: 89.5% | viability, T/C [4]: 99.1% | viability, T/C [5]: 112% | viability, T/C [6]: 97.9% | viability, T/C [7]: 95.6% | viability, T/C [8]: 99.4% | viability, T/C [9]: 99.4% | viability, T/C [10]: 93.6% | viability, T/C [11]: 103% | viability, T/C [12]: 88.7% | viability, T/C [13]: 97.7% | viability, T/C [14]: 96.9% | viability, T/C [15]: 101% | viability, T/C [16]: 97% | viability, T/C [17]: 99.3% | viability, T/C [18]: 104% | viability, T/C [19]: 109% | viability, T/C [20]: 100% | viability, T/C [21]: 101% | viability, T/C [22]: 96.3% | viability, T/C [23]: 94.9% | viability, T/C [24]: 104% | viability, T/C [25]: 95% | viability, T/C [26]: 98% | viability, T/C [27]: 96.5% | viability, T/C [28]: 95.7% | viability, T/C [29]: 96.1% | viability, T/C [30]: 95.7%

COc1cc(C2c3cc4c(cc3C(OC3OC5COC(C)OC5C(O)C3O)C3COC(=O)C23)OCO4)cc(OC)c1O (stereo not given) + CC(CO)NC(=O)c1cc(-c2ccc(Cl)cc2)nn(-c2cnn(C)c2)c1=O
IC50 (second compound 0.1 µM): > 10000 nM | IC50 (second compound 0.316 µM): > 10000 nM | IC50 (second compound 1 µM): > 10000 nM | IC50 (second compound 3.16 µM): > 10000 nM | IC50 (second compound 10 µM): > 10000 nM | viability, T/C [1]: 113% | viability, T/C [2]: 116% | viability, T/C [3]: 101% | viability, T/C [4]: 112% | viability, T/C [5]: 104% | viability, T/C [6]: 101% | viability, T/C [7]: 109% | viability, T/C [8]: 118% | viability, T/C [9]: 102% | viability, T/C [10]: 104% | viability, T/C [11]: 109% | viability, T/C [12]: 94.9% | viability, T/C [13]: 117% | viability, T/C [14]: 106% | viability, T/C [15]: 119% | viability, T/C [16]: 106% | viability, T/C [17]: 110% | viability, T/C [18]: 105% | viability, T/C [19]: 103% | viability, T/C [20]: 110% | viability, T/C [21]: 119% | viability, T/C [22]: 110% | viability, T/C [23]: 117% | viability, T/C [24]: 97.9% | viability, T/C [25]: 126% | viability, T/C [26]: 128% | viability, T/C [27]: 114% | viability, T/C [28]: 109% | viability, T/C [29]: 115% | viability, T/C [30]: 95.6%
